Laboratory results reported in publication PMC11873939, “Target Identification with Live-Cell Photoaffinity Labeling and Mechanism of Action Elucidation of ARN23765, a Highly Potent CFTR Corrector” (Journal of Medicinal Chemistry, 2025).
Each block holds one compound with its values, some of them ahead of it.

What was measured:
F508del-CFTR [1] = molecular target: T1, F508del-CFTR (Homo sapiens, UniProt P13569, DEL508-508); test: HS-YFP functional assay in CFBE41o- cells stably overexpressing F508del-CFTR; assay type: cell-based; conditions: 24 h treatment; for HS-YFP assay in CFBE41o- cells EC50 / EC50: 3 nM-10 µM range; for HS-YFP assay in CFBE41o- cells Emax: values normalized to DMSO-incubated cells
T1 construct: expressed in transfected cells
Procedure: These analogues were tested in the functional assay on the human bronchial epithelia-derived cell line, CFBE41o-, which stably overexpresses F508del-CFTR and the halide-sensitive yellow fluorescent protein (HS-YFP).[31] […]
HS-YFP-based assay for CFTR activity
Twenty-four hours after seeding on 96-well plates, CFBE41o- cells stably over-expressing F508del-CFTR and the HS-YFP were treated with test compounds at different concentrations in the 3 nM-10 µM range.1 Cells treated with vehicle alone (DMSO) and with ARN23765, respectively, served as negative and positive controls. The following day, cells were washed with PBS containing (in mM) 137 NaCl, 2.7 KCl, 8.1 Na2HPO4, 1.5 KH2PO4, 1.0 CaCl2, and 0.5 MgCl2. Cells were then incubated for 25 min with […] of PBS plus forskolin (20 µM) and VX-770 (1 µM) to maximally stimulate F508del-CFTR. Cells were then transferred to a microplate reader (FluoStar Galaxy; BMG Labtech, Offenburg, Germany) for CFTR activity determination. The plate reader was equipped with high-quality excitation (HQ500/20X: 500 ± 10 nm) and emission (HQ535/30M: 535 ± 15 nm) filters for YFP (Chroma Technology). Each assay comprised a continuous 14 s fluorescence reading, 2 s before and 12 s after injection of […] of an iodide-containing solution (PBS with Cl- replaced by I-; final I- concentration […]). Data were normalized to the initial background-subtracted fluorescence. To determine I- influx rate, the final 11 s of the data for each well were fitted with an exponential function to extrapolate initial slope (dF/dt). Reproducibility of results was confirmed by performing three independent experiments. […]

wt-CFTR = molecular target: T2, wt-CFTR (Homo sapiens, UniProt P13569); test: Live-cell photoaffinity labeling, streptavidin pull-down and CFTR Western blot; assay type: binding; conditions: wt-CFTR CFBE41o- cells, probe 1 μM; for CFTR in streptavidin pull-down (WB) after PAL: 2 h, UV 365 nm
T2 construct: expressed in transfected cells
Procedure: (§1) Wt-CFTR or F508del-CFTR CFBE41o- cells were plated at 2–2.5 × 10^6 cells/plate in 6 cm diameter dishes. The day after, sodium butyrate (5–2.5 mM) was added for 24 h; next, the medium was exchanged with fresh one supplemented with DMSO (0.25%) (276855, Sigma-Aldrich) or probe (1 μM). For competition experiments, a 25-fold excess of ARN23765 (25 μM) was added 30 min before probe’s addition. For the analysis of “corrected” F508del-CFTR, F508del-CFTR CFBE41o- cells were kept at 27 °C for 24 h before adding the probes. Probes were incubated with cells for 2 h, then the medium was removed, and plates were washed twice with phosphate buffer saline (PBS). Cells were placed on ice and irradiated for 5 min at a wavelength of 365 nm using a 100-W UV-lamp (95–0127–02 model B100-AP, Analytik Jena). Cells were harvested with trypsin (T4299, Sigma-Aldrich), washed with PBS (D8537, Sigma-Aldrich), and pellets were stored at −80 °C until used, centrifuged at 300 × g and washed twice with PBS (D8537, Sigma-Aldrich). Pellets from in-cell photoaffinity labeling with alkyne-probes (PAP_1 and PAP_2) were lysed in PBS plus protease inhibitor cocktail (78429, Thermo Scientific) by sonication. The suspension was centrifuged at 800 × g for 20 min at 4 °C to discard nuclei and cell debris. The total extracted proteins were quantified with the bicinchoninic acid (BCA) protein assay (23225, Thermo Scientific) and subjected to CuAAC before proceeding with pull-down. Pellets from in-cell photoaffinity labeling with desthio-biotinylated (DS-biot) probes (PAP_1 DS-biot, PAP_2 DS-biot, PAP_N1 DS-biot, PAP_N2 DS-biot) were lysed with a modified RIPA buffer [50 mM tris-HCl pH 8, 150 mM NaCl, 0.5% Triton-X100, 0.2% SDS, 1 mM ethylenediaminetetraacetic acid (EDTA)] supplemented with protease inhibitor cocktail and centrifuged at 10.000× g for 10 min. The protein content in the supernatant was quantified by BCA protein assay. Protein lysate (200 μg) was diluted to 800 μL and the Triton-X100 percentage was reduced to 0.2% before proceeding to pull-down.
Copper-catalyzed azide–alkyne cycloaddition (CuAAC) was performed according to a previously described protocol.[62] Briefly, to the protein preparation (250 μL at 1 mg/mL protein concentration) the following reagents were added at the indicated final concentrations: 100 μM 5/6-TAMRA-azide-desthiobiotin (CLK-1110–5, Jena Bioscience), 1.0 mM tris-(2-carbossietil)phosphine (TCEP, C4706, Sigma-Aldrich), 100 μM tris-[(1-benzyl-1H-1,2,3-triazol-4-yl)methyl]amine (TBTA, 678937, Sigma-Aldrich), 1.0 mM CuSO4.5H2O (Sigma), and 0.8% sodium dodecyl sulfate (SDS). TBTA was first dissolved in DMSO at 83.5 mM and then diluted with four volumes of tert-butanol. The reaction was mixed by vortexing and incubated for 1 h at 25 °C. After the reaction time, proteins were precipitated with 5 volumes of cold acetone overnight at −20 °C. Samples were centrifuged for 20 min at 20.000× g, and the pellets were washed with methanol, air-dried, and finally resuspended with 600 μL of 1% SDS. SDS concentration was then diluted to 0.2% with PBS before proceeding to pull-down.
(§2) High capacity streptavidin agarose (20359, Thermo Scientific) (25 μL) was added to PAP-labeled cell extracts for 1 h at room temperature under gentle rotation. The streptavidin beads were collected by centrifugation and washed four times with lysis buffer. Resin-bound proteins were eluted with 45 μL of 5 mM biotin (B4501, Sigma-Aldrich) for 30 min at room temperature and analyzed with Western blot for CFTR expression. Input samples (4 and 8 μg for wt-CFTR and F508del-CFTR CFBE41o-, respectively) were collected immediately before incubation with streptavidin resin. Input and pulled-down samples were analyzed with WB as described in the supplementary methods.

F508del-CFTR [2] = molecular target: T1, F508del-CFTR; test: as above; assay type: binding; conditions: for CFTR in streptavidin pull-down (WB) after PAL: F508del-CFTR CFBE41o- cells, probe 1 μM, 2 h, UV 365 nm
Procedure: as §1, §2

CFTR = test: Live-cell photoaffinity labeling in CFTR–/– CFBE41o- cells (control); assay type: binding, human; conditions: probe 1 μM, 2 h

T2 sequence (P13569 whole entry): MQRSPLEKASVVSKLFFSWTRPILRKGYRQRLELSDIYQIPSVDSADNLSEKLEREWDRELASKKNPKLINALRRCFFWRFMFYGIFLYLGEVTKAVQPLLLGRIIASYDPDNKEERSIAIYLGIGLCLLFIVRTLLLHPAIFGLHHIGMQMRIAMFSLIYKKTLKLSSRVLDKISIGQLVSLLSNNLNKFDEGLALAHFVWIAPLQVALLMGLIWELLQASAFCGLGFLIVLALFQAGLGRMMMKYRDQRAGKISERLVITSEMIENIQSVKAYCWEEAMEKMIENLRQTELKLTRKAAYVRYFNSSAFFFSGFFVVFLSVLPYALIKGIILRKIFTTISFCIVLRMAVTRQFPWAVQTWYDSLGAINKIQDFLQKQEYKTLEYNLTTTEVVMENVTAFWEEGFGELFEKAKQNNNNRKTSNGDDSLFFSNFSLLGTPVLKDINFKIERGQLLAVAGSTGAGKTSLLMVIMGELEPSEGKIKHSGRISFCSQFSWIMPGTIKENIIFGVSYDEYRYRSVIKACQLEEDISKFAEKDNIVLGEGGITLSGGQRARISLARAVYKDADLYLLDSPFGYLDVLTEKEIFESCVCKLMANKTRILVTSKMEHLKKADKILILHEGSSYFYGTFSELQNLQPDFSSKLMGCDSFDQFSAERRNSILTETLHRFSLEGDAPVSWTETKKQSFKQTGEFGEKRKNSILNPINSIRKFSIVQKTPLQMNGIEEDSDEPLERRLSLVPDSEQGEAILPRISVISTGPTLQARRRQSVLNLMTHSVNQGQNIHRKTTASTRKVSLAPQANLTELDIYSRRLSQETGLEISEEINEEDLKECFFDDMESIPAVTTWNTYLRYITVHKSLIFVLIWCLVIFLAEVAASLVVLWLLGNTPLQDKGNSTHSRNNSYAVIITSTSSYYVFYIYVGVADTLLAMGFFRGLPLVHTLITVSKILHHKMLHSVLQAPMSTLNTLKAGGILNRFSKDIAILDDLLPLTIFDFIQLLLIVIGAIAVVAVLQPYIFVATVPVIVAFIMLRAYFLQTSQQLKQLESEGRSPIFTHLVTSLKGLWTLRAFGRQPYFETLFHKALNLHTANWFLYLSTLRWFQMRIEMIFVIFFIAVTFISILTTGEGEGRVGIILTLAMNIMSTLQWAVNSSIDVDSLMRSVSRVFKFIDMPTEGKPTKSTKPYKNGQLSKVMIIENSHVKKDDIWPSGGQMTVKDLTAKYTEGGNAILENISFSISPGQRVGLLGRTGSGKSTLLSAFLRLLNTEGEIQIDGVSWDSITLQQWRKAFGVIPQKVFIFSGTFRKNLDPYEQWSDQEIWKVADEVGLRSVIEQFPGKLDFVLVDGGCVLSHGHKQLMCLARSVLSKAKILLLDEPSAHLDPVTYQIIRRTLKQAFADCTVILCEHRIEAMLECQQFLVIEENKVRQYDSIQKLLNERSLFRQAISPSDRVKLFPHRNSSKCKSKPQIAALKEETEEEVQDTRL
T1 sequence (P13569 with tags, fused parts or gaps DEL508-508): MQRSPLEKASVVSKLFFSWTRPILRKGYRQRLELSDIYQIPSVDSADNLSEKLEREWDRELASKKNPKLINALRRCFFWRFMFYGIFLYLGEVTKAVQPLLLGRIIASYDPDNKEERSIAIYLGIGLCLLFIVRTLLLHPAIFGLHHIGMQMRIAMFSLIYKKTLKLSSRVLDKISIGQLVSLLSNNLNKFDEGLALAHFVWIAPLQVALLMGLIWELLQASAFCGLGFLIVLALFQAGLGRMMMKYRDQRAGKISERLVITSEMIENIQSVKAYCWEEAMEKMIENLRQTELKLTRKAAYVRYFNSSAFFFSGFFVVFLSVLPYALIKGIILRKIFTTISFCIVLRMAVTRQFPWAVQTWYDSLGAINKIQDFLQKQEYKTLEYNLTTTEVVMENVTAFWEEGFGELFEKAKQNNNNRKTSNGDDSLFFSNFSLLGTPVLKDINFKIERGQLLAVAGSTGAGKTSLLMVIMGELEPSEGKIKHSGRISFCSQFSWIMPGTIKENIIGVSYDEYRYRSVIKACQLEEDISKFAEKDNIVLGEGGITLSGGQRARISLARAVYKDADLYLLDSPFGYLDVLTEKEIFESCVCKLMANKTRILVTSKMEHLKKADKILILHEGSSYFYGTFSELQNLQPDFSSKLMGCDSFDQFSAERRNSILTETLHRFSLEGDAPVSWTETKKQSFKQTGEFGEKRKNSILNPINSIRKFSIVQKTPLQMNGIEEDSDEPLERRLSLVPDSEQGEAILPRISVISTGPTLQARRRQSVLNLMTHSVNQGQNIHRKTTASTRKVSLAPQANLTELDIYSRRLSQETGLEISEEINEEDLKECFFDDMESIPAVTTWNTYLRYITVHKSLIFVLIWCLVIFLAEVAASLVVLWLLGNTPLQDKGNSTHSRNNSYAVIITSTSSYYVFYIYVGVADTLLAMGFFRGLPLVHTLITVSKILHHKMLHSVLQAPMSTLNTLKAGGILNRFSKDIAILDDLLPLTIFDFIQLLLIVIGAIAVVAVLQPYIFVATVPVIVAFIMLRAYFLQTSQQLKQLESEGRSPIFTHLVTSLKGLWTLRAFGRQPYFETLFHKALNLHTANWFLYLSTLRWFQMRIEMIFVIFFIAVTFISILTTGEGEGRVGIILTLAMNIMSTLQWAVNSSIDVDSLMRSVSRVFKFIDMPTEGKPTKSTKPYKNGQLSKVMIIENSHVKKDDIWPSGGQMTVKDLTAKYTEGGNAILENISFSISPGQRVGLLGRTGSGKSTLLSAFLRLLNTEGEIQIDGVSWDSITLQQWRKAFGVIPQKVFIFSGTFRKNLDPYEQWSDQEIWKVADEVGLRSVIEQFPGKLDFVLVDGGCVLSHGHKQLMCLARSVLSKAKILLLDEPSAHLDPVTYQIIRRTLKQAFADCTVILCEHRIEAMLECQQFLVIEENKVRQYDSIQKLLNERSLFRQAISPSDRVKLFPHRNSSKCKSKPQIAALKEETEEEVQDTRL

Structure (SMILES): C#Cc1ccc(O[C@H]2CCCc3c(C(F)(F)F)nn(-c4cccc(C(=O)N(C)c5ccc6c(c5)OC(F)(F)O6)c4)c32)cc1 [Compound 1, (S)-N-(2,2-Difluorobenzo[d][1,3]dioxol-5-yl)-3-(7-(4-ethynylphenoxy)-3-(trifluoromethyl)-4,5,6,7-tetrahydro-1H-indazol-1-yl)-N-methylbenzamide]
EC50 (F508del-CFTR [1]): 3.3 nM
HS-YFP assay in CFBE41o- cells Emax (F508del-CFTR [1]): 3

Structure (SMILES): C#Cc1ccc(O[C@H]2CCCc3c(C(F)(F)F)nn(-c4cccc(C(=O)N(C)c5ccc(C6(C(F)(F)F)N=N6)cc5)c4)c32)cc1 [PAP_2, (S)-3-(7-(4-Ethynylphenoxy)-3-(trifluoromethyl)-4,5,6,7-tetrahydro-1H-indazol-1-yl)-N-methyl-N-(4-(3-(trifluoromethyl)-3H-diazirin-3-yl)phenyl)benzamide]
EC50 (F508del-CFTR [1]): 385 nM
HS-YFP assay in CFBE41o- cells Emax (F508del-CFTR [1]): 2.1
CFTR in pull-down (WB) after PAL with alkyne probe and CuAAC DS-biot tagging (wt-CFTR; UV irradiation, CuAAC): barely detect a band corresponding to CFTR

Structure (SMILES): C#CCCC1(CCNC(=O)c2ccc(O[C@H]3CCCc4c(C(F)(F)F)nn(-c5cccc(C(=O)N(C)c6ccc7c(c6)OC(F)(F)O7)c5)c43)cc2)N=N1 [PAP_1, (S)-3-(7-(4-((2-(3-(But-3-yn-1-yl)-3H-diazirin-3-yl)ethyl)carbamoyl)phenoxy)-3-(trifluoromethyl)-4,5,6,7-tetrahydro-1H-indazol-1-yl)-N-(2,2-difluorobenzo[d][1,3]dioxol-5-yl)-N-methylbenzamide]
EC50 (F508del-CFTR [1]): < 3 nM
HS-YFP assay in CFBE41o- cells Emax (F508del-CFTR [1]): 2.8

Structure (SMILES): C[C@H]1NC(=O)N[C@H]1CCCCCC(=O)NCCOCCOCCOCCn1cc(-c2ccc(O[C@H]3CCCc4c(C(F)(F)F)nn(-c5cccc(C(=O)N(C)c6ccc(C7(C(F)(F)F)N=N7)cc6)c5)c43)cc2)nn1 [PAP_2 DS-biot, N-Methyl-3-((S)-7-(4-(1-(18-((4S,5R)-5-methyl-2-oxoimidazolidin-4-yl)-13-oxo-3,6,9-trioxa-12-azaoctadecyl)-1H-1,2,3-triazol-4-yl)phenoxy)-3-(trifluoromethyl)-4,5,6,7-tetrahydro-1H-indazol-1-yl)-N-(4-(3-(trifluoromethyl)-3H-diazirin-3-yl)phenyl)benzamide]
CFTR in streptavidin pull-down (WB) after PAL (CFTR): did not detect CFTR
EC50 (F508del-CFTR [1]): 480 nM
HS-YFP assay in CFBE41o- cells Emax (F508del-CFTR [1]): 1.4
CFTR in streptavidin pull-down (WB) after PAL (wt-CFTR): consistently captured
CFTR forms in streptavidin pull-down (WB) after PAL (F508del-CFTR [2]; F508del-CFTR CFBE41o- cells kept at 27 °C for 24 h (low-temperature rescue) before PAL): bound and pulled down both F508del-CFTR immature (band B) and mature (band C) protein
CFTR in streptavidin pull-down (WB) after PAL (F508del-CFTR [2]): consistently captured

Structure (SMILES): CN(C(=O)c1cccc(-n2nc(C(F)(F)F)c3c2[C@@H](Oc2ccc(C(=O)O)cc2)CCC3)c1)c1ccc(C2(C(F)(F)F)N=N2)cc1 [Compound 2, (S)-4-((1-(3-(Methyl(4-(3-(trifluoromethyl)-3H-diazirin-3-yl)phenyl)carbamoyl)phenyl)-3-(trifluoromethyl)-4,5,6,7-tetrahydro-1H-indazol-7-yl)oxy)benzoic Acid]
EC50 (F508del-CFTR [1]): 24 nM
HS-YFP assay in CFBE41o- cells Emax (F508del-CFTR [1]): 1.2
Effect in CFTR rescuing (HS-YFP assay, Figure S2) (F508del-CFTR [1]; vs DMSO): no significant effect

The next lines start with the values.

HS-YFP assay in CFBE41o- cells EC50 (F508del-CFTR [1]): devoid of activity
CFTR in streptavidin pull-down (WB) after PAL (wt-CFTR): not pulled down
CFTR in streptavidin pull-down (WB) after PAL (F508del-CFTR [2]): not pulled down
Structure (SMILES): C[C@H]1NC(=O)N[C@H]1CCCCCC(=O)NCCOCCOCCOCCn1cc(CCC2(CCNC(=O)c3ccc(O[C@H]4CCCc5c(C(F)(F)F)nn(-c6cccc(C(=O)Nc7ccc8c(c7)OC(F)(F)O8)c6)c54)cc3)N=N2)nn1 [PAP_N1 DS-biot, N-(2,2-Difluorobenzo[d][1,3]dioxol-5-yl)-3-((S)-7-(4-((2-(3-(2-(1-(18-((4S,5R)-5-methyl-2-oxoimidazolidin-4-yl)-13-oxo-3,6,9-trioxa-12-azaoctadecyl)-1H-1,2,3-triazol-4-yl)ethyl)-3H-diazirin-3-yl)ethyl)carbamoyl)phenoxy)-3-(trifluoromethyl)-4,5,6,7-tetrahydro-1H-indazol-1-yl)benzamide]

HS-YFP assay in CFBE41o- cells EC50 (F508del-CFTR [1]): devoid of activity
CFTR in streptavidin pull-down (WB) after PAL (wt-CFTR): not pulled down
CFTR in streptavidin pull-down (WB) after PAL (F508del-CFTR [2]): not pulled down
Structure (SMILES): C[C@H]1NC(=O)N[C@H]1CCCCCC(=O)NCCOCCOCCOCCn1cc(-c2ccc(O[C@H]3CCCc4c(C(F)(F)F)nn(-c5cccc(C(=O)Nc6ccc(C7(C(F)(F)F)N=N7)cc6)c5)c43)cc2)nn1 [PAP_N2 DS-biot, 3-((S)-7-(4-(1-(18-((4S,5R)-5-Methyl-2-oxoimidazolidin-4-yl)-13-oxo-3,6,9-trioxa-12-azaoctadecyl)-1H-1,2,3-triazol-4-yl)phenoxy)-3-(trifluoromethyl)-4,5,6,7-tetrahydro-1H-indazol-1-yl)-N-(4-(3-(trifluoromethyl)-3H-diazirin-3-yl)phenyl)benzamide]
